# Assay results taken from patent US20080146555A1, “Uses of Kinase Inhibitors and Compositions Thereof” (GPC Biotech, Inc, priority 2004, published 2008).
# pIC50: −log10 of the molar value. Structures can show the parent of a compound that is named as a salt. Where two headings read alike, the source gives them in different places.
# Experiments:
# JNK1α1 = target: T1, JNK1α1 (Homo sapiens, UniProt P45983); experiment: JNK1α1 kinase assay; format: biochemical
# T1 construct: purchased Upstate 14-327
# Experimental: • 1. 10× Reaction Buffer: 500 mM Tris-HCl pH 7.5, 1 mM EGTA, 1% 2-mercaptoethanol. • 2. Enzyme Dilution Buffer (EDB): 50 mM Tris-HCl pH 7.5, 0.1 mM EGTA, 0.1% 2-mercaptoethanol, 1 mg/ml BSA. • 3. JNK 11/SAPK1c, active: Dilute to 0.4-8 ng/μl with EDB. Use […] per assay point. • 4. ATF2 (amino acids 19-96) (Catalog #12-367): Prepare a 1.08 mg/ml stock. Use 2.5 μl per assay point for a final concentration of 3 μM per assay point. • 5. Magnesium/ATP Cocktail (Catalog #20-113): 75 mM MgCl2 and 500 μM ATP in 20 mM MOPS, pH 7.2, 25 mM β-glycerol phosphate, 5 mM EGTA, 1 mM sodium orthovanadate, 1 mM dithiothreitol. • 6. [γ-^32P]ATP: Stock 1 mCi/100 μl (3000 Ci/mmol, obtained from PerkinElmer, Cat. # BLU002A). Make 10 μl aliquots (100 μCi/vial). Before starting the assay, dilute an aliquot to 1 μCi/μl with 90 μl of Magnesium/ATP Cocktail diluted 1:2 with sterile, distilled water. […]
# • 1. Add 2.5 μl of 10× Reaction Buffer per assay. • 2. Add 2.5 μl of ATF2 (amino acids 19-96). • 3. Add 2.5 μl (1-20 ng) JNK1α1/SAPK1c, active. • 4. Add 7.5 μl of sterile, distilled water. • 5. Add 10 μl of the diluted [γ-^32P]ATP mixture. • 6. Incubate for 10 minutes at 30° C. • 7. Transfer a 20 μl aliquot onto the center of a 2 cm×2 cm P81 paper. • 8. Wash the assay squares three times for 5 minutes with 0.75% phosphoric acid. • 9. Wash the assay squares once for 5 minutes with acetone. • 10. Transfer the assay squares to vial and add 5 ml scintillation cocktail. • 11. Read in scintillation counter. Compare cpm of enzyme samples to cpm of control samples that contain background control.
# Rsk3 = target: T2, Rsk3 (Homo sapiens, UniProt Q15349); experiment: Rsk3 kinase assay; format: biochemical
# T2 construct: purchased Upstate 14-462
# Experimental: • 1. 2.5× Reaction Buffer: 20 mM MOPS, pH 7.0, 1 mM EGTA. • 2. Enzyme Dilution Buffer (EDB): 20 mM MOPS, pH 7.0, 1 mM EDTA, 0.01% Brij-35, 5% glycerol, 0.1% β-mercaptoethanol, 1 mg/ml BSA. • 3. RSK3, active: Dilute to 4-40 ng/μl with EDB. Use 2.5 μl per assay point. • 4. MAPKAP Kinase 2 substrate peptide (Catalog #12-240): Prepare a 2.5 mM stock. Use 2.5 μl per assay point for a final concentration of 250 μM per assay. • 5. Magnesium/ATP Cocktail (Catalog #20-113): 75 mM MgCl2 and 500 μM ATP in 20 mM MOPS, pH 7.2, 25 mM β-glycerol phosphate, 5 mM EGTA, 1 mM sodium orthovanadate, 1 mM dithiothreitol. • 6. [γ-^32P]ATP: Stock 1 mCi/100 μl (3000 Ci/mmol, obtained from PerkinElmer, Catalog #BLU002A). Make 10 μl aliquots (100 μCi/vial). Before starting the assay, dilute the Magnesium/ATP Cocktail 1:1 with sterile, distilled water. Then dilute an aliquot of [γ-^32P]ATP to 1 μCi/μl with 90 μl of the diluted Magnesium/ATP Cocktail. […]
# • 1. Add 10 μl of 2.5× Reaction Buffer per assay. • 2. Add 2.5 μl of MAPKAP Kinase 2 substrate peptide. • 3. Add 2.5 μl of RSK3, active (10-100 ng). • 4. Add 10 μl of the diluted [γ^32P]ATP mixture. • 5. Incubate for 10 minutes at 30° C. • 6. Transfer a 20 μl aliquot onto the center of a 2 cm×2 cm P81 paper. • 7. Wash the assay squares three times for 5 minutes with 0.75% phosphoric acid. • 8. Wash the assay squares once for 5 minutes with acetone. • 9. Transfer the assay squares to vial and add 5 ml scintillation cocktail. • 10. Read in scintillation counter. Compare cpm of enzyme samples to cpm of control samples that contain background control.
# AMPK = target: T3, AMPK; experiment: AMPK kinase assay; format: biochemical, rat
# T3 construct: purified from rat-human # = U06454
# Experimental: • 1. AMPK Reaction Buffer: 20 mM HEPES-NaOH, pH 7.0, 0.4 mM dithiothreitol, 0.01% Brij-35, with or without 300 μM AMP. • 2. SAMS Substrate Peptide (Catalog #12-355): Use 7 μl per reaction for final assay concentration of 100 μM. • 3. AMP-Activated Protein Kinase: Dilute enzyme to 2-10 mU/μl in AMPK Reaction Buffer with or without 300 μM AMP. AMP can be purchased from Sigma-Aldrich, Catalog #A1752. • 4. [γ-^32P]ATP: Stock 1 mCi/100 μl (3000 Ci/mmol, obtained from PerkinElmer, Cat. # BLU002A). Make 10 μl aliquots (100 μCi/vial). […]
# • NOTE: Negative controls should be run with all reagents containing no AMP. • 1. Add 13 μl of Reaction Buffer per assay. • 2. Add 7 μl of SAMS substrate peptide [100 μM final assay concentration]. • 3. Add 10 μl of AMP-Activated Protein Kinase [20-100 mU]. • 4. Add 10 μl of the diluted [^32P]ATP mixture. • 5. Incubate for 15 minutes at 30° C. in a shaking incubator. • 6. Spot 35 μl onto the center of a 2 cm×2 cm P81 paper square. • 7. Wash the assay squares three times with 0.75% phosphoric acid for 5 minutes. • 8. Wash the assay squares once with acetone for 5 minutes. • 9. Transfer the assay squares to vial and add 5 ml scintillation cocktail. • 10. Read in scintillation counter. Compare cpm of enzyme samples to cpm of control samples that contain no enzyme (background control).
# [1] = kinase panel, 10 μM ATP, read-out: JNK1α1 IC50
# [2] = read-out: MAPK8 Inhibition (IC50)
# [3] = read-out: RPS6KA2 Inhibition (IC50)
# [4] = enzyme purified from rat, read-out: PRKAA2 (AMPK) Inhibition (IC50)
# T2 sequence (Q15349 whole entry, species assumed): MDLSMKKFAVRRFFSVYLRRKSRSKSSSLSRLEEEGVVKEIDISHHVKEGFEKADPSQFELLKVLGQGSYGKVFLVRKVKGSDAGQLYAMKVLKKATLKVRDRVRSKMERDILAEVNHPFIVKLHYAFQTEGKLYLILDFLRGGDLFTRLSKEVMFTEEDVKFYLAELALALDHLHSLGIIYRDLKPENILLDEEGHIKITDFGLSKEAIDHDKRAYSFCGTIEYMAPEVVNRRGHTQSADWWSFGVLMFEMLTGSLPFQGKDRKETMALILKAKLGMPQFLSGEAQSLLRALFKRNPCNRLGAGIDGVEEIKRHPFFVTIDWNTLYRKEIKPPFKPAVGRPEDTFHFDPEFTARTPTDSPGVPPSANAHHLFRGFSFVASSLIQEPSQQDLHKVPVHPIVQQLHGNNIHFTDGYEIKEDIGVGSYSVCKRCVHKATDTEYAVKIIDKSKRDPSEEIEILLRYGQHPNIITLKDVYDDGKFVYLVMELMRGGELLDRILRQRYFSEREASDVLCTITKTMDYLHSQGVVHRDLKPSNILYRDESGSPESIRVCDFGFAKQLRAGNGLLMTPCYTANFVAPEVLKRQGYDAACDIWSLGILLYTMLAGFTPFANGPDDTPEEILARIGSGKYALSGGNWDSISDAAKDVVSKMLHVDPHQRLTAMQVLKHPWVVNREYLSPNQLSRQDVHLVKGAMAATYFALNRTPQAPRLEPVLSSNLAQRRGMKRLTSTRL
# T1 sequence (P45983 1-384 isoform P45983-2, species assumed): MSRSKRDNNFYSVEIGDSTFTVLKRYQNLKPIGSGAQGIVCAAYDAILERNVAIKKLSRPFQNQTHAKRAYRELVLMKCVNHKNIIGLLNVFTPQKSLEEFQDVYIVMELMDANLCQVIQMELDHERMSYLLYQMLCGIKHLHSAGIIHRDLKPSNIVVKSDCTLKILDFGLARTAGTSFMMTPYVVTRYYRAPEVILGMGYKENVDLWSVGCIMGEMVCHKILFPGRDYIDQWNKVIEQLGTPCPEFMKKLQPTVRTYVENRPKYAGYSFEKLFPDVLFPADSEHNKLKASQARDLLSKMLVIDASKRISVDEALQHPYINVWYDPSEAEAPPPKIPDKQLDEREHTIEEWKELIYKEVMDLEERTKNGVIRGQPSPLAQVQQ
compound,measurement,setting,value
CC(C)N1CCN(C(=O)COc2ccc(-c3n[nH]c4c3C(=O)c3c(NC(=O)NN5CCOCC5)cccc3-4)cc2)CC1 [Compound A37],pIC50,JNK1α1; [1],7.00 to 8.00
same,pIC50,JNK1α1; [2],> 7.30
same,pIC50,"Rsk3; kinase panel, 10 μM ATP, read-out: Ribosomal protein S6 kinase 3 (Rsk3) IC50",7.00 to 8.00
same,pIC50,Rsk3; [3],> 7.30
same,pIC50,AMPK; [4],> 7.00
"COCCN1CCN(Cc2ccc(-c3n[nH]c4c3C(=O)c3c(NC(=O)NN5CCOCC5)cccc3-4)cc2)CC1 [Compound B16, N-[3-(4-{[4-(2-methoxyethyl)piperazinyl]methyl}phenyl)-4-oxoindeno[2,3-d]pyrazol-5-yl](morpholin-4-ylamino)carboxamide dihydrochloride]",pIC50,JNK1α1; [1],> 7.00
same,pIC50,JNK1α1; [2],> 7.00
same,pIC50,Rsk3; [3],> 6.30
same,pIC50,AMPK; [4],> 7.30
same,pIC50,"AMPK; kinase panel, 10 μM ATP, read-out: AMPK IC50",> 7.00
